We go through 38 compounds from US20130296311A1, “INHIBITORS OF HCV NS5A” (PRESIDIO PHARMACEUTICALS, INC., priority 2010, published 2013).

The test system of one assay is HCV 1b_Huh-Luc/Neo-ET cell line persistently expressing a bicistronic genotype 1b replicon in Huh 7 cells. The experiment in a line: HCV replicon assay (luciferase readout, 72 h). The format is cell-based, HCV genotype 1b. The note with it: Hepatitis C virus, Huh-7, 72 h, read-out: Inhibition of HCV genotype 1b. Summed up:
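Huh 7 cells carrying a bicistronic genotype 1b luciferase/neo replicon received compound in triplicate the day after plating. After 72 h, replicon levels were read as Bright-Glo luciferase activity, expressed as % of control; EC50 was fitted with a four-parameter logistic and determined several times.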
For the compound `CC(C)[C@H](NC(=O)N1CCN(C)CC1)C(=O)N1CCC[C@H]1c1ncc(-c2ccc(C#Cc3ccc(-c4cnc([C@@H]5CCCN5C(=O)[C@@H](NC(=O)N5CCN(C)CC5)C(C)C)[nH]4)cc3)cc2)[nH]1` [Compound 287], the EC50 was over 1000 nM.
Turning to `O=C([C@H](O)c1ccccc1)N1CCC[C@H]1c1ncc(-c2ccc(C#Cc3ccc(-c4cnc([C@@H]5CCCN5C(=O)[C@H](O)c5ccccc5)[nH]4)cc3)cc2)[nH]1` [Compound 157], the EC50 is under 1 nM.
The same measure, in the same setting: then `CC(=O)N[C@@H](C(=O)N1CCC[C@H]1c1ncc(C#Cc2ccc(-c3cnc([C@@H]4CCCN4C(=O)[C@H](NC(C)=O)c4ccccc4)[nH]3)cc2)[nH]1)c1ccccc1` [Compound 109], with under 1 nM; and `COC(=O)N[C@H](C(=O)N1CCC[C@H]1c1ncc(-c2ccc(C#Cc3ccc(-c4cnc([C@@H]5CCCN5C(=O)[C@@H](C(C)C)N(C)C)[nH]4)cc3)cc2)[nH]1)C(C)C` [Compound 954], with 1 to 9.9 nM; and `COC(=O)N[C@H](C(=O)N1CCC[C@H]1c1ncc(-c2ccc(C#Cc3ccc4c(c3)CCc3nc([C@@H]5CCCN5C(=O)[C@@H](NC(=O)OC)C(C)C)[nH]c3-4)cc2)[nH]1)C(C)C` [Compound 1094], with under 1 nM.
Regarding `COC(=O)N[C@H](C(=O)N1CCC[C@H]1c1ncc(C#Cc2ccc(-c3ccc4nc([C@@H]5CCCN5C(=O)[C@@H](NC(=O)OC)C(C)C)[nH]c4c3)nc2)[nH]1)C(C)C` [Compound 1086], the EC50 was under 1 nM.
On the same count and under the same terms, as for `C[C@@H](NC(=O)[C@@H]1CCCN1C(=O)[C@H](NC(=O)OC(C)(C)C)c1ccccc1)c1ccc(C#Cc2ccc(-c3cnc([C@@H]4CCCN4C(=O)[C@H](NC(=O)OC(C)(C)C)c4ccccc4)[nH]3)cc2)cc1` [Compound 167], the figure is 1 to 9.9 nM; as for `COC(=O)N[C@H](C(=O)N1CCC[C@H]1c1ncc(-c2ccc(C#Cc3ccc4nc([C@@H]5CCCN5C(=O)[C@@H](NC(=O)OC)C(C)C)[nH]c4c3)nc2)[nH]1)C(C)C` [Compound 1033], under 1 nM.
Regarding `COC(=O)N[C@@H](C(=O)N1CCC[C@H]1c1ncc(-c2ccc(C#Cc3ccc(-c4cnc([C@@H]5CCCN5C(=O)[C@H](NC(=O)N5CCN(C)CC5)c5ccccc5)[nH]4)cc3)cc2)[nH]1)c1ccccc1` [Compound 240], the EC50 is under 1 nM.
For `O=S(=O)(c1ccccc1)N1CCC[C@H]1c1ncc(-c2ccc(C#Cc3ccc4nc([C@@H]5CCCN5S(=O)(=O)c5ccccc5)[nH]c4c3)cc2)[nH]1` [Compound 1038], the EC50 is over 1000 nM.
Same read-out and setting: as for `COC(=O)N[C@H](C(=O)N[C@@H](C)c1ncc(-c2ccc(C#Cc3ccc(-c4cnc([C@@H]5CCCN5C(=O)[C@@H](NC(=O)OC)[C@@H](C)OC)[nH]4)cc3)cc2)[nH]1)[C@@H](C)OC` [Compound 289], the figure is under 1 nM; as for `CC1(O)CCN(C(=O)N[C@@H](C(=O)N2CCC[C@H]2c2ncc(C#Cc3ccc(-c4ccc(-c5cnc([C@@H]6CCCN6C(=O)[C@H](NC(=O)N6CCC(C)(O)CC6)c6ccccc6)[nH]5)cc4)cc3)[nH]2)c2ccccc2)CC1` [Compound 870], under 1 nM; as for `COC(=O)N[C@H](C(=O)N1CCC[C@H]1c1ncc(C#Cc2ccc(-c3cnc([C@@H]4CCCN4C(=O)[C@@H](NC(=O)OC)C(C)C)[nH]3)cc2)[nH]1)C(C)C` [Compound 134], under 1 nM.
The same measure, in the same setting: then `COC(=O)N[C@H](Cc1ccccc1)C(=O)N1CCC[C@H]1c1ncc(-c2ccc(C#Cc3ccc(-c4cnc([C@@H]5CCCN5C(=O)[C@H](NC(=O)OC)c5ccccc5)[nH]4)cc3)cc2)[nH]1` [Compound 180], with under 1 nM; and `O=C(N[C@@H](C(=O)N1CCC[C@H]1c1ncc(C#Cc2ccc(-c3ccc(-c4cnc([C@@H]5CCCN5C(=O)[C@H](NC(=O)N5CCOCC5)c5ccccc5)[nH]4)cc3)cc2)[nH]1)c1ccccc1)N1CCOCC1` [Compound 761], with under 1 nM.
Still for that read-out and setting: as for `COC(=O)N[C@H](C(=O)N1C[C@H](F)C[C@H]1c1ncc(-c2ccc(C#Cc3ccc4nc([C@@H]5CCCN5C(=O)[C@@H](NC(=O)OC)C(C)C)[nH]c4c3)cc2)[nH]1)C(C)C` [Compound 1040], the figure is under 1 nM; as for `COC(=O)N[C@H](C(=O)N1CCC[C@H]1c1ncc(C#Cc2cccc3c(C#Cc4cnc([C@@H]5CCCN5C(=O)[C@@H](NC(=O)OC)C(C)C)[nH]4)cccc23)[nH]1)C(C)C` [Compound 1113], under 1 nM; as for `COC(=O)N[C@H](C(=O)N1CCC[C@H]1c1nc2ccc(C#Cc3ccc(-c4cnc([C@@H]5CCCN5C(=O)[C@H](NC(=O)OC)C(C)C)[nH]4)cc3)cc2[nH]1)C(C)C` [Compound 1053], under 1 nM.
Turning to `C[C@@H](c1ncc(-c2ccc(C#Cc3ccc(-c4cnc([C@@H]5CCCN5C(=O)[C@H](NC(=O)C5CC5)c5ccccc5)[nH]4)cc3)cc2)[nH]1)N(C)C(=O)[C@H](NC(=O)C1CC1)c1ccccc1` [Compound 278], the EC50 is under 1 nM.
For `COC(=O)N[C@@H](C(=O)N1CCC[C@H]1c1ncc(-c2ccc(C#Cc3ccc(-c4cnc([C@@H]5CCCN5C(=O)[C@H](NC(=O)[C@@H]5CCCO5)c5ccccc5)[nH]4)cc3)cc2)[nH]1)c1ccccc1` [Compound 195], the EC50 was under 1 nM.
Still for that read-out and setting: as for `COC(=O)N[C@H](C(=O)N1CCC[C@H]1c1nc(-c2ccc3cc(C#Cc4[nH]c([C@@H]5CCCN5C(=O)[C@@H](NC(=O)OC)C(C)C)nc4C(F)(F)F)ccc3c2)c[nH]1)C(C)C` [Compound 1082], the figure is under 1 nM.
The same measure, in the same setting: then `O=C(N[C@@H](C(=O)N1CCC[C@H]1c1ncc(-c2ccc(C#Cc3ccc(-c4cnc([C@@H]5CCCN5C(=O)[C@H](NC(=O)OC5CCOCC5)c5ccccc5)[nH]4)c(F)c3)cc2)[nH]1)c1ccccc1)OC1CCOCC1` [Compound 1014], with under 1 nM; and `CN1CCN(C(=O)N[C@@H](C(=O)N2CCC[C@H]2c2cc(-c3ccc(C#Cc4ccc(-c5cnc([C@@H]6CCCN6C(=O)[C@H](NC(=O)N6CCN(C)CC6)c6ccccc6)[nH]5)cc4)cc3)n[nH]2)c2ccccc2)CC1` [Compound 213], with under 1 nM.
Still for that read-out and setting: then `C[C@@H](NC(=O)OC(C)(C)C)C(=O)N1CCC[C@H]1c1ncc(-c2ccc(C#Cc3ccc(-c4cnc([C@@H]5CCCN5C(=O)[C@@H](C)NC(=O)OC(C)(C)C)[nH]4)cc3)cc2)[nH]1` [Compound 151], with 10 to 999 nM; and `COC(=O)N[C@@H](C(=O)N1CCC[C@H]1c1ncc(-c2ccc(C#Cc3ccc(-c4cnc([C@@H]5CCCN5C(=O)[C@H](NC(=O)N5CCC[C@@H](O)C5)c5ccccc5)[nH]4)cc3)cc2)[nH]1)c1ccccc1` [Compound 264], with under 1 nM.
As for `COC(=O)N[C@@H](C(=O)N1CCC[C@H]1c1ncc(C#Cc2ccc(-c3ccc(-c4cnc([C@@H]5CCCN5C(=O)[C@H](NC(=O)OC(C)(C)C)c5ccccc5)[nH]4)cc3)cc2)[nH]1)c1ccccc1` [Compound 753], the EC50 was under 1 nM.
With `COC(=O)N[C@H](C(=O)N[C@@H](C)c1ncc(-c2ccc(C#Cc3ccc(-c4cnc([C@@H]5CCCN5C(=O)[C@@H](c5ccccc5)N(C)C)[nH]4)cc3)cc2)[nH]1)C(C)C` [Compound 965], the EC50 was under 1 nM.
Still for that read-out and setting: as for `CN1CCN(C(=O)N[C@@H](C(=O)N2CCC[C@H]2c2ncc(-c3ccc(C#Cc4ccc(-c5cnc([C@@H]6CCCN6C(=O)[C@H](NC(=O)C6CC6)c6ccccc6)[nH]5)cc4)cc3)[nH]2)c2ccccc2)CC1` [Compound 238], the figure is under 1 nM.
As for `CC(C)[C@@H](C(=O)N1CCC[C@H]1c1ncc(-c2ccc(C#Cc3ccc4nc([C@@H]5CCCN5C(=O)[C@H](C(C)C)N5CCOC5=O)[nH]c4c3)cc2)[nH]1)N1CCOC1=O` [Compound 1039], the EC50 is 1 to 9.9 nM.
On the same count and under the same terms, then `COC(=O)N[C@@H](C(=O)N1CCC[C@H]1c1ncc(-c2ccc(C#Cc3ccc(-c4cnc([C@@H]5CCCN5C(=O)[C@H](NC(=O)N5CCC[C@H]5CO)c5ccccc5)[nH]4)cc3)cc2)[nH]1)c1ccccc1` [Compound 255], with under 1 nM.
Turning to `CS(=O)(=O)N[C@@H](C(=O)N1CCC[C@H]1c1ncc(-c2ccc(C#Cc3ccc(-c4cnc([C@@H]5CCCN5C(=O)[C@@H](c5ccccc5)N5CCOCC5)[nH]4)cc3)cc2)[nH]1)c1ccccc1` [Compound 232], the EC50 was under 1 nM.
Still for that read-out and setting: then `O=C(N[C@@H](C(=O)N1CCC[C@H]1c1ncc(-c2ccc(C#Cc3ccc(-c4cnc([C@@H]5CCCN5C(=O)[C@H](NC(=O)N5CCC(O)CC5)c5ccccc5)[nH]4)cc3)cc2)[nH]1)c1ccccc1)N1CCC(O)CC1` [Compound 251], with under 1 nM.

Still in this assay, the particulars now being: Hepatitis C virus, Huh-7, read-out: Inhibition of HCV genotype 1b.
As to `COC(=O)N[C@H](C(=O)N1CCC[C@H]1c1nc(C)c(C#Cc2ccc3cc(-c4cnc([C@@H]5CCCN5C(=O)[C@@H](NC(=O)OC)[C@@H](C)OC)[nH]4)ccc3c2)[nH]1)C(C)C` [Compound 1264], the EC50 is under 1 nM.
On the same count and under the same terms, then `CC[C@H](NC(=O)OC)C(=O)N1CCC[C@H]1c1nc2ccc(C#Cc3ccc(-c4cnc([C@@H]5CCCN5C(=O)[C@@H](NC(=O)OC)[C@@H](C)OC)[nH]4)cc3)cc2[nH]1` [Compound 1245], with under 1 nM; and `COC(=O)N[C@H](C(=O)N1CCC[C@H]1c1ncc(-c2ccc3cc(C#Cc4[nH]c([C@@H]5CCCN5C(=O)[C@@H](NC(=O)OC)[C@@H](C)OC)nc4C(F)(F)F)ccc3c2)[nH]1)[C@@H](C)OC` [Compound 1255], with under 1 nM; and `COC(=O)N[C@H](C(=O)N1CCC[C@H]1c1ncc(-c2ccc(C#Cc3ccc4nc([C@@H]5CCCN5C(=O)[C@@H](NC(=O)OC)[C@@H](C)OC)[nH]c4n3)cc2)[nH]1)[C@@H](C)OC` [Compound 1252], with under 1 nM.
The same measure, in the same setting: as for `COC(=O)N[C@H](C(=O)N1CCN(C(=O)OC)C[C@H]1c1ncc(-c2ccc(C#Cc3ccc4nc([C@@H]5CCCN5C(=O)[C@H](NC(=O)OC)c5ccccc5)[nH]c4c3)cc2)[nH]1)C(C)C` [Compound 1230], the figure is under 1 nM; as for `COC(=O)N[C@H](C(=O)N1CCC[C@H]1c1ncc(-c2ccc(C#Cc3ccc4nc([C@@H]5CCCN5C(=O)[C@@H](NC(=O)OC)[C@@H](C)OC)[nH]c4c3)cc2)[nH]1)C(C)C` [Compound 1242], under 1 nM.
